{"source": "patent US12564622B2", "about": "“Preventing cytokine release syndrome” (priority 2017, dated 2026)", "key": {"[1]": {"tested_on": "C. novyi-NT therapy-induced toxicity in mice bearing large subcutaneous CT26 tumors", "test": "C. novyi-NT therapy of large subcutaneous CT26 tumors (therapy-induced toxicity)", "format": "in vivo, mouse (BALB/c)", "settings": "CT26 tumor-bearing mice injected with parental C. novyi-NT spores, with the indicated agent", "method": "ANP concentrations in the supernatant of ANP-C. novyi-NT culture and in mouse plasma were measured by an Elisa kit from Ray Biotech (EIAR-ANP-1) that recognizes both human and mouse ANP. ANP in the supernatant of ANP-C. novyi-NT culture were shown biological activities as described elsewhere (Lofton et al., 1990 Biochem. Biophys. Res. Comm., 172:793-9). Briefly, bacterial supernatants were applied to cultured bovine aortic endothelial cells (BAOEC, Cell Applications Inc.) for 3 minutes. cGMP concentrations were then measured in BAOEC lysates by the Direct cGMP Elisa Kit from Enzo following the manufacture's instruction.\nThe colon cancer cell line CT26 was injected subcutaneously into the right flank of six to eight week old female Balb/C mice as described elsewhere (Qiao et al., 2011 Oncotarget, 2:59-68). Tumor sizes were measured with a caliper and calculated as ½*L*W*H as described elsewhere (Tomayko et al., 1989 Can. Chemother. Pharmacol., 24:148-54). When tumors reached 600-900 mm^3 after about two weeks, 12×10^6 spores of C. novyi-NT or ANP-C. novyi-NT at 3×10^6/μl were injected intratumorally into 4 central parts of the tumor with a 32 G Hamilton syringe needle. The bacteria typical germinated in the tumors within 24 hours, turning them necrotic. Hydration of the mice was supported by daily subcutaneous injections of […] saline. Human ANP (Sigma) was dissolved in saline, loaded in mini-osmotic pumps (ALZET) with a release rate of 12 μg/day and implanted subcutaneously in the back of mice 12 hours before the spore injection. Pumps loaded with saline served as controls. Metyrosine was dissolved in PBS and injected IP at 60 mg/kg/day for three days before the C. novyi injection to deplete catecholamines in storage. Two hours after the spore injection, 60 mg/kg of metyrosine was injected intraperitoneally (IP). For each of the next three days, IP injections of metyrosine at 30 mg/kg were administered. Control groups were injected with PBS at the same time points.\nBlood samples were collected into tubes containing 5 mM EDTA and 4 mM sodium metabisulfite after puncturing the facial vein or (terminally) by cardiac puncture. Subsequently, the samples were centrifuged and the plasmas were stored at −80° C. prior to analysis. Catecholamines (dopamine, norepinephrine and epinephrine) were measured using the 3-CAT Research ELISA kit from Labor Diagnostika Nord GmbH/Rocky Mountain Diagnostics. Cytokines were measured using Luminex assays based on Millipore Mouse and Human Cytokine/Chemokine panels.\nANP concentrations in the supernatant of ANP-C. novyi-642 NT culture and in mouse plasma were measured with an Elisa kit from Ray Biotech (EIAR-ANP-1) that recognizes both human and mouse ANP. […] Briefly, bacterial supernatants were applied to cultured bovine aortic endothelial cells (BAOEC, Cell Applications Inc.) for 3 minutes. cGMP concentrations were then measured in BAOEC lysates by the Direct cGMP Elisa Kit from Enzo following the manufacture's instruction.\nThe colon cancer cell line CT26 was injected subcutaneously into the right flank of six to eight weeks old female Balb/C mice as described elsewhere (see, e.g., Qiao et al. 2011 Oncotarget 2:59-68). Tumor sizes were measured with a caliper and calculated as ½*L*W*H as described elsewhere (see, e.g., Tomayko et al. 1989 Cancer Chemother Pharmacol 24:148-154). When tumors reached 600-900 mm^3 after about two weeks, 12×10^6 spores of C. novyi-NT or ANP-C. novyi-NT at 3×10^6/μl were injected intratumorally into 4 central parts of the tumor with a 32 G Hamilton syringe needle. The bacteria typical germinated in the tumors within 24 hours, turning them necrotic. Hydration of the mice was supported by daily subcutaneous injections of 500 μl saline. Human ANP (Sigma) was dissolved in saline, loaded in mini-osmotic pumps (ALZET) with a release rate of 12 μg/day and implanted subcutaneously in the back of mice 12 hours before the spore injection. Pumps loaded with saline served as controls. […]"}, "[2]": {"tested_on": "co-culture of hCART19 and Raji cells", "test": "In vitro co-culture of Raji and hCART19 cells", "format": "cell-based, human", "settings": "co-culture stimulated with epinephrine 15 ng/ml; CHX 10 μg/ml", "source_text": "Human CD19scFv-CD28-4-1BB-CD3ζ CAR-T cells (PM-CAR1003) were purchased from Promab Biotechnologies and maintained less than 7 days in AIM-V medium (GIBCO) supplemented with 300 IU/ml of hIL2 (Peprotech), 5% FBS and antibiotics (Car-T medium)."}, "[3]": {"tested_on": "LPS-injected BALB/c mice", "format": "in vivo, mouse (BALB/c)", "settings": "for mortality: LPS-treated mice, adrenoceptor blockers (α1, α2, β1, β2); for disease course (mortality, catecholamines, IL-6, TNF-α, MIP-2, KC) versus LPS only: catecholamine by subcutaneous osmotic pump plus sublethal dose of LPS", "method": "LPS from Escherichia coli 0111:B4 was formulated as a 10 mg/ml solution in water and stored in −80° C. LPS was injected intraperitoneally at a dose of 3.5 mg/kg. […] Human ANP (Sigma) was dissolved in saline, loaded in mini-osmotic pumps (ALZET) with a release rate of 12 μg/day and implanted subcutaneously in the back of mice 12 hours before the LPS injection. Mice implanted with pumps loaded with saline served as controls. […] […] The control groups were injected with PBS. […] Hydration of mice was supported by daily subcutaneous injection of 0.5 ml saline.\nLPS from Escherichia coli 0111:B4 was formulated as a 10 mg/ml solution in water and stored in −80° C. In Balb/C mice, LPS was injected intraperitoneally at a lethal dose of 3.5 mg/kg. […] In experiments with catecholamine pumps, a sublethal dose with 15-35% death rate was optimized in Balb/C mice. In TH+/+ and TH^ΔLysM mice with C57BL/6 background, a lethal dose was optimized at 5 mg/kg. Human ANP (Sigma) was dissolved in saline, loaded in mini-osmotic pumps (ALZET) with a release rate of 12 μg/day and implanted subcutaneously in the back of mice 12 hours before the LPS injection. Mice implanted with pumps loaded with saline served as controls. Metyrosine was freshly dissolved in PBS and injected IP at the indicated doses for three days prior to the LPS treatment. One hour before the LPS injection, metyrosine was injected into the lower abdomen contralateral to the side of LPS injection. The control groups were injected with PBS. For the following 3 days, metyrosine was injected IP at reduced indicated doses. Hydration of mice was supported by daily subcutaneous injection of 0.5 ml saline."}, "[4]": {"settings": "incubation in media for 24 hours at 37° C."}, "[5]": {"tested_on": "polymicrobial peritoneal sepsis induced by CLP", "test": "Cecal ligation and puncture (CLP) sepsis", "format": "in vivo, mouse (C57BL/6)", "settings": "antibiotic alone, from 20 hours after CLP", "method": "(§1) Cecal ligation and puncture (CLP) was performed as described elsewhere (Rittirsch et al., 2009 Nature Protocols, 4:31-6). Briefly, six-to-eight week old female C57BL/6 mice were anesthetized and following abdominal incision, the cecum was ligated at about 14 the distance from the luminal entry to its tip. The ligated cecum was punctured through and through with a 22 G needle at ½ and ¾ the distance from the luminal entry to its tip. A small amount of the cecal content was gently pushed out of the four openings into the peritoneum. Subsequently, the abdominal muscles were sutured and the skin was closed with two staples. Five hundred microliters of saline were immediately injected subcutaneously to the mice. For the groups treated with antibiotics, imipenem (Sigma) was injected subcutaneously at 25 mg/kg starting from 20 hours after CLP, with a schedule of twice a day on day one and once a day thereafter for 10 days. Human ANP (Sigma) was dissolved in saline, loaded in mini-osmotic pumps (ALZET) with a release rate of 12 μg/day and implanted subcutaneously in the back of mice 12 hours before the CLP, with pumps loaded with saline serving as controls. Metyrosine was freshly dissolved in PBS and injected IP at 60 mg/kg/day for three days before the CLP. Twenty minutes before the CLP, metyrosine was injected at 60 mg/kg IP into the right side. The control groups were injected with PBS. For the following 4 days, metyrosine was injected at 30 mg/kg/day IP into the right side. Hydration of mice was supported by daily subcutaneous injection of 0.5 ml saline.\nas §1, with “CLP” for “Cecal ligation and puncture (CLP)”, “(see, e.g., Rittirsch” for “(Rittirsch”, “2008 Rev Immunol 8:776-787).” for “2009 Nature Protocols, 4:31-6).”, “6-8 weeks” for “six-to-eight week”, “¼” for “14”, “days.” for “days. Human ANP (Sigma) was dissolved in saline, loaded in mini-osmotic pumps (ALZET) with a release rate of 12 μg/day and implanted subcutaneously in the back of mice 12 hours before the CLP, with pumps loaded with saline serving as controls.”"}}, "note": "“And” between values parts separate entries of the source, which are not always exact repeats. Identical values can stand only once."}
{"smiles": "Cc1ccc2nc(NCCN)c3ncc(C)n3c2c1", "note": "[BMS-345541]", "values": [{"measurement": "effect on survival (words)", "setting": "[1]", "result": "no significant improvement in survival"}, {"measurement": "effect on survival (words)", "setting": "[1]; listed as BMS345541", "result": "did not improve survival"}]}
{"smiles": "C[C@@H]1C[C@@H]([C@H](O)CC2CC(=O)NC(=O)C2)C(=O)[C@@H](C)C1", "note": "[CHX, Cycloheximide]", "values": [{"measurement": "increase of catecholamines and cytokines (TNF-α, MIP-1α, IFN-γ, GM-CSF)", "setting": "[2]", "result": "greatly suppressed"}]}
{"smiles": "Cc1ccc(OCC(O)C(C)NC(C)C)c2c1CCC2", "note": "(stereo not shown) [ICI 118551]", "values": [{"measurement": "mortality", "setting": "[3]", "result": "did not reduce mortality"}]}
{"smiles": "COC1(C2=NCCN2)COc2ccccc2O1", "note": "(stereo not shown) [RX 821002]", "values": [{"measurement": "mortality", "setting": "[3]", "result": "did not reduce mortality"}]}
{"smiles": "NCCc1ccc(O)c(O)c1", "note": "[dopamine]", "values": [{"measurement": "disease course (mortality, catecholamines, IL-6, TNF-α, MIP-2, KC) versus LPS only", "setting": "[3]", "result": "absent"}]}
{"smiles": "CNC[C@H](O)c1ccc(O)c(O)c1", "note": "[epinephrine, (−)-epinephrine]", "values": [{"measurement": "disease course (mortality, catecholamines, IL-6, TNF-α, MIP-2, KC) versus LPS only", "setting": "[3]", "result": "earlier onset and exacerbated disease course"}, {"measurement": "animal survival", "setting": "[3]; mouse, in vivo", "result": "no effect on animal survival"}, {"measurement": "cytokine release", "setting": "[3]; mouse, in vivo", "result": "moderately stimulate cytokine release"}, {"measurement": "stability in media", "setting": "[4]", "result": "all detectable epinephrine was degraded"}]}
{"smiles": "C[C@@H](O)[C@H]1C(=O)N2C(C(=O)O)=C(SCCN=CN)C[C@H]12", "note": "[imipenem]", "values": [{"measurement": "mice that died after CLP", "setting": "[5]", "result": "88% and > 90%"}]}
{"smiles": "COCCc1ccc(OCC(O)CNC(C)C)cc1", "note": "(stereo not shown) [metoprolol]", "values": [{"measurement": "mortality", "setting": "[3]", "result": "did not reduce mortality"}]}
{"smiles": "Cc1ncc([N+](=O)[O-])n1CCO", "note": "[metronidazole]", "values": [{"measurement": "effect on survival (words)", "setting": "[1]", "result": "did not protect animals from sepsis"}]}
{"smiles": "NC[C@H](O)c1ccc(O)c(O)c1", "note": "[norepinephrine]", "values": [{"measurement": "disease course (mortality, catecholamines, IL-6, TNF-α, MIP-2, KC) versus LPS only", "setting": "[3]", "result": "less pronounced"}]}
{"smiles": "COc1cc2nc(N3CCN(C(=O)c4ccco4)CC3)nc(N)c2cc1OC", "note": "[prazosin]", "values": [{"measurement": "production of catecholamines and cytokines", "setting": "[3]; 24 hours after LPS, α1 blockade", "result": "suppressed the production of catecholamines and cytokines"}, {"measurement": "mortality", "setting": "[3]", "result": "substantially reduced mortality"}]}
